The NIST ThermoML archive (doi:10.1016/j.tca.2014.07.025)

Assay: mn = molality of the nth substance listed, in mol/kg
Conditions: 100 kPa, Liquid; for speed of sound: Frequency=3 MHz, Sing-around technique in a fixed-path interferometer; for mass density: Vibrating tube method

NCC(=O)NCC(=O)O [glycylglycine] + O
Conditions	mass density, 305.15 K [kg/m3]	mass density, 310.15 K [kg/m3]	mass density, 315.15 K [kg/m3]	speed of sound, 305.15 K [m/s]	speed of sound, 310.15 K [m/s]	speed of sound, 315.15 K [m/s]
m1 = 0.00206	995.2	993.513	991.618	1514.1	1524.1	1532.4
m1 = 0.00597	995.41	993.721	991.824	1514.8	1524.7	1532.9
m1 = 0.00797	995.517	993.827	991.929	1515.2	1525.1	1533.5
m1 = 0.01021	995.637	993.946	992.047	1515.4	1525.2	1533.6
m1 = 0.02015	996.168	994.474	992.568	1515.8	1525.6	1534
m1 = 0.05037	997.778	996.073	994.147	1517.8	1527.5	1535.8
m1 = 0.1008	1000.45	998.723	996.764	1521.6	1531.2	1539.4
m1 = 0.2021	1005.75	1003.99	1001.97	1529.5	1538.8	1546.9
m1 = 0.2959	1010.58	1008.79	1006.71	1536	1545.4	1553
m1 = 0.4	1015.86	1014.03	1011.88	1542.5	1551.6	1559.3
